Reference: US20050054629A1, “Compounds and methods of treating cell proliferative diseases” (priority 2002, published 2005)
Like-named read-outs stand apart in the source and are kept apart here.

Experiments:
MCF-7 breast carcinoma = test: Cytotoxicity assay (MTT), 6 days; type: cell-based; details: Homo sapiens, MCF7, 144 h, 6 days of treatment, read-out: Toxicity 6d (IC 50, μM) MCF7
Description: (§1) Four human tumoral cell lines, namely HCT116 colon adenocarcinoma, H460 lung carcinoma, MCF-7 and MDA-MB-231 breast carcinoma cell lines, and three immortalized but non tumorigenic cell lines, namely NIH3T3 mouse fibroblasts and human breast-derived MCF10-A and MRC-5 were purchased at ATCC and cultured according to their recommendations. In order to determine the cytotoxicity associated with one compound, a microculture tetrazolium assay (MTT), as described by Carmichael et al (Cancer Res, 1996) with modifications, was used. Briefly, 5.10^3 or 2.10^4 cells were seeded per well in 24-well plates 24 hours before drug addition. Cells were treated with 0, 1, 10, 17.5, 25 and 50 μM of compound solubilized in DMSO, adjusting the total volume of DMSO (Dimethylsulfoxide) to 1%. Forty-eight hours or 6 days after treatment, the medium was replaced by PBS containing 0.5 mg/ml MTT (Sigma) and cells were incubated for 3 more hours at 37° C. before solubilization of formazan crystals in 100% DMSO. Absorbance was measured using a spectrophotometer at a wavelength of 550 nm. Cell surviving fraction and 50% inhibitory concentration were calculated. All assays were performed in triplicate.

MRC-5 = test: Cytotoxicity assay (MTT), 6 days; type: cell-based; details: Homo sapiens, MRC5, 144 h, 6 days of treatment, read-out: Toxicity 6d (IC 50, μM) MRC-5
Description: as §1

NIH3T3 mouse fibroblasts = test: Cytotoxicity assay (MTT), 6 days; type: cell-based; details: NIH3T3, 144 h, 6 days of treatment, read-out: Toxicity 6d (IC 50, μM) NIH3T3
Description: as §1

[1] = tested on: MDA-MB-231 breast carcinoma; test: Cytotoxicity assay (MTT), 6 days; type: cell-based; details: Homo sapiens, MDA-MB-231, 144 h, 6 days of treatment, read-out: Toxicity 6d (IC 50, μM) MDA231
Description: as §1

H460 lung carcinoma = test: Cytotoxicity assay (MTT), 6 days; type: cell-based; details: Homo sapiens, NCI-H460, 144 h, 6 days of treatment, read-out: Toxicity 6d (IC 50, μM) H460
Description: as §1

MCF10-A = test: Cytotoxicity assay (MTT), 6 days; type: cell-based; details: Homo sapiens, MCF-10A, 144 h, 6 days of treatment, read-out: Toxicity 6d (IC 50, μM) MCF10-A
Description: as §1

cell architecture = test: Cell architecture modification, phase contrast; type: cell-based; parameters: key: −: no effect of the compound was observed; +: an effect of the compound was observed
MDA-MB-231 cells = test: Matrigel invasion assay (Boyden chamber); type: cell-based, human; details: for Invasion: MDA-MB-231, Boyden chamber, matrigel
Method: Chemoinvasion assay was performed in Boyden chamber as described by Albini et al (Cancer Res, 1987) with some modifications. Polycarbonate membranes with 8 μm pores were coated with matrigel (125 μg/cm^2) at room temperature for 48 h. Two hours before experiments, the matrix was […] with serum-free medium containing 0.1% BSA.
One day after seeding, 10^6 MDA-MB-231 cells were treated overnight with different concentrations of compounds (1, 10, 17.5, 25 and 50 μM). Cells were collected with Versene (Invitrogen), counted with trypan blue exclusion, rinsed twice in serum-free medium containing 0.1% BSA and resuspended in serum-free medium containing 0.1% BSA plus the appropriate concentration of compound. 10^5 treated cells were placed in the upper chamber. Medium containing 10% of FBS plus the appropriate concentration of compound was placed in the lower chamber as a chemoattractant. The Boyden chamber was incubated 6 hours at 37° C. before the cells were fixed and stained with Diff-Quick (Dade-Berhing). Cells on the upper part of the filters were removed using a cotton swab. Cells on the underside of the filters were visualised and counted under light microscope.

MDA231 = test: Cytoskeleton analysis, actin staining (FITC-phalloidin); type: cell-based, human; details: 24 h treatment
Method: Since major rearrangements of cytoskeleton are observed in tumor cells and since the small GTPases are known to regulate these events, analysis of actin cytoskeleton was performed. Subconfluent cells seeded onto coverslips were treated with different concentration of compound (1, 10, 17.5, 25 and 50 μM) or vehicle for 24 h, before being fixed in 4% formaldehyde for 15 min., permeabilized in 0.2% Triton X100 for 5 minutes and incubated in PowerBlock (Biogenex) for 10 min. Actin filaments were stained with 0.5 μg/ml fluorescein isothiocyanate (FITC)-labelled phalloidin for 1 hour. Analysis was performed using an inverted fluorescent microscope.

[2] = tested on: HCT116 colon adenocarcinoma; test: Cytotoxicity assay (MTT), 6 days; type: cell-based, human; details: 6 days of treatment, read-out: Toxicity 6d (IC 50, μM) HCT116
Description: as §1

HCT116 = test: Cell viability assay (MTT), Example 32; type: cell-based, human; details: Homo sapiens, HCT-116, 144 h; day 6, 10% FBS
Method: FIG. 7: Antiproliferative effect of compounds on HCT116 (top) and MDA-MB-231 (bottom) cell lines measured by MTT viability assay. 2.5 10^3 (HCT116) or 7.5 10^3 (MDA-MB-231) cells were seeded in 48-well plates in growth medium containing 10% FBS, with or without various concentrations of test compounds. Cell cultures were fed every 3 days with the appropriate media. Cell viability was determined on day 6. Data were analyzed and IC50s were calculated from the dose-response curves using GraphPad Prism.
In order to determine one compound effect on cell viability, microculture tetrazolium assay (MTT) was performed as described by Carmichael et al., (1996) with modifications. Four human tumoral cell lines, namely HCT116 colon adenocarcinoma, H460 lung carcinoma, MCF-7 and MDA-MB-231 breast carcinoma cell lines, and 3 immortalized but non tumorigenic cell lines, namely NIH3T3 mouse fibroblasts and human breast-derived MCF10-A and human lung-derived MRC-5 were purchased at ATCC and cultured according to their recommendations. Briefly, 2.5 10^3 to 2 10^4 cells per well were seeded in 48-well plates 24 hours before drug addition. Cells were treated with 0 to 200 μM (11 concentrations) of compound solubilized in DMSO, adjusting the final concentration of DMSO to 1% in the well. Six days after treatment, the medium was replaced by PBS containing 0.5 mg/ml MTT (Sigma) and cells were incubated for 1-3 hours at 37° C. before solubilization of formazan crystals in 100% DMSO. Absorbance was measured using a spectrophotometer at a wavelength of 550 nm. Data was analyzed using the GraphPad Prism software (GraphPad Software, Inc., San Diego, USA), and IC50 (dose leading to 50% cell death) was calculated from the dose-response curves.

HCT116 cells = test: Anchorage-independent cell growth assay in soft agar, Example 32; type: cell-based, human; details: 7 days
Method: FIG. 8: Effect of the treatment of HCT116 cells with the compounds on the size of the clones grown in soft agar. 5 10^3 cells were seeded in 24-well plates in 0.3% agar-containing medium supplemented with the designated amount of compounds. After 7 days of incubation at 37° C., pictures were taken of each well and were analyzed using the ImageJ image analysis software. In particular, clone size and number were calculated. The data were analyzed using GraphPad Prism, and IC50 was calculated.
In order to evaluate the effect of one compound on the capacity of tumour cells to grow without anchorage, HCT116 cells were seeded in soft agar. In contrast to microplate assays which average the drug's effects over an entire cell population, clonogenic assays offer the possibility of distinguishing cytotoxic agents (i.e., decreased colony number) from cytostatic agents (i.e., decreased colony size without decreased colony number; Murphy M. J. et al., 1996).
Briefly, 5 10^3 HCT116 cells were resuspended in 300 pi of complete medium containing 0.3% soft-agar (Difco) and different concentrations of compound (8 concentrations ranging from 0 to 30 μM). Cells were then poured on a solidified layer of medium containing 0.5% of soft agar plus the compound at the same concentration as in the upper layer. Cells were incubated for 7 days' at 37° C. before pictures of each well were taken using a phase contrast microscope (Nikon) and a digital camera (Nikon Coolpix 990). Pictures were subsequently analyzed using a free image analysis software from the NIH (ImageJ) allowing to determine clones size and number.
Data was analyzed using the GraphPad Prism software, and IC50 (dose leading to a 50% decrease of clone size or number) was calculated from dose-response curves. The ratio IC50 clone size/IC50 clone number was then calculated. When this ratio is equal to 1 (IC50 size=IC50 number), the compound is referred to as “cytotoxic”. When the ratio is close to 0 (IC50 size<<IC50 number), the compound is referred to as “cytostatic” (FIG. 6).

| IC50 (HCT116) [µM] | IC50 anchorage-independent growth of HCT116 (clone size) in soft agar (HCT116 cells) | SMILES | IC50 (MCF-7 breast carcinoma) [µM] | IC50 (MRC-5) [µM] | IC50 (NIH3T3 mouse fibroblasts) [µM] | IC50 [1] [µM] | IC50 (H460 lung carcinoma) [µM] | IC50 (MCF10-A) [µM] | Cell architecture modification phase contrast (cell architecture) | Invasion (MDA-MB-231 cells) | Cell architecture modification actin staining MDA231 (MDA231) | IC50 [2] [µM] | IC50 ([2]; Homo sapiens, HCT-116, 144 h) [µM] | concentration giving significant inhibition of invasive properties of MDA-MB-231 cells (MDA-MB-231 cells) [µM] |
| --- | --- | --- | --- | --- | --- | --- | --- | --- | --- | --- | --- | --- | --- | --- |
|  |  | O=c1cc(COCc2ccccc2)occ1OCCCCCOc1ccc(Cl)c(Cl)c1 [EH7701, 2-(Benzyloxymethyl)-5-[5-(3,4-dichlorophenyloxy)pentyloxy]-4H-pyran-4-one] | 17.5 | 20 | 40 | 22.5 | 6 | > 50 | − | No effect | cell spreading | 7.5 | ≤ 15 |  |
|  |  | CCCc1c(OCCCCCCOc2coc(CO)cc2=O)ccc(Cl)c1Cl [EH16701] | 15 | > 50 | > 50 | 47.5 | 7 | > 50 | − | No effect | cell spreading | 8.5 | ≤ 15 |  |
|  |  | CCCc1c(OCCCCCCCOc2coc(CO)cc2=O)ccc(Cl)c1Cl [EH17701, 5-[7-(3,4-Dichloro-2-propylphenyloxy)heptyloxy]-2-(hydroxymethyl)-4H-pyran-4-one] | 15 | 17.5 |  | 35 | 5 to 10 | > 50 | − |  | cell spreading |  |  | 17.5 |
|  |  | CCCc1cc(Cl)c(Cl)cc1OCCCCCOc1coc(CO)cc1=O [EH30701, 5-[5-(4,5-Dichloro-2-propylphenyloxy)pentyloxy]-2-(hydroxymethyl)-4H-pyran-4-one] | 20 |  |  | 15 | 15 |  | − | Decrease | cell spreading | 8 | ≤ 15 | 17.5 |
| 1.5 to 4 | micromolar range | O=c1cc(COC2CCCCO2)occ1OCCCCCn1ccc2cc(F)ccc21 (stereo not drawn) [EHT 0533, 5-[5-(5-Fluoro-indol-1-yl)-pentyloxy]-2-(tetrahydro-pyran-2-yloxymethyl)-4H-pyran-4-one] |  |  |  |  |  |  |  |  |  |  |  |  |
| 1.5 to 4 | micromolar range | Cc1cc2ccccc2n1CCCCCOc1coc(COC2CCCCO2)cc1=O (stereo not drawn) [EHT 2427, 5-[5-(2-Methyl-indol-1-yl)-pentyloxy]-2-(tetrahydro-pyran-2-yloxymethyl)-4H-pyran-4-one] |  |  |  |  |  |  |  |  |  |  |  |  |
| 1.5 to 4 | micromolar range | O=c1cc(COC2CCCCO2)occ1OCCCCCn1ccc2ccccc21 (stereo not drawn) [EHT 7395, 5-(5-Indol-1-yl-pentyloxy)-2-(tetrahydro-pyran-2-yloxymethyl)-4H-pyran-4-one] |  |  |  |  |  |  |  |  |  |  |  |  |
